The source of these data is paper PMC13477270 (Nature structural & molecular biology, 2025).

The test system of one test is iTRIM37 KO RPE1 cells. The class given is cell-based. The conditions noted are these: centrinone pretreatment, then TRIM37 knockout with doxycycline.
Test [1] deals with iTRIM37 KO RPE1 cells (PLK4 inhibition). The class given is cell-based. The conditions noted are these: centrinone 100 or 150 nM, before TRIM37 knockout with doxycycline.

As to `COc1c(Nc2cc(C)[nH]n2)nc(Sc2ccc(S(=O)(=O)Cc3cccc([N+](=O)[O-])c3F)cc2F)nc1N1CCOCC1` [centrinone], the “frequency of centrobin condensate formation after centrosome loss” value in the test with iTRIM37 KO RPE1 cells was “at a frequency similar to that in constitutive TRIM37Δ cells with centrosomes”. In addition, the centrosome depletion entry in test [1] is on record as “depleted centrosomes”.
